Results on 14 compounds are retold here after PubChem BioAssay (NCI).

What all share (experiment): growth of human tumour cells (NCI), 48 h
Test [1] concerns MCF7 breast.
Test [2] has as its system HS 578T breast.
Test [3] concerns RXF 393 renal.
Test [4] concerns UO-31 renal.
The subject of test [5] is OVCAR-8 ovarian.
Test [6] has as its system MDA-MB-435.
For test [7], the system named is SK-MEL-5 melanoma.
Test [8] relates to SN12C renal.
Test [9] has as its system SW-620 colon.
Test [10] relates to HCT-15 colon.

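Each compound was tested at five concentrations against cells in 96-well plates for 48 hours. At the TGI there is no net growth.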

Regarding `CCOC(=O)c1c2c(n(C)c1-c1ccccc1)C(=O)C(C)=CC2=O`, the TGI was 6.01 µM in [1]; 56.7 µM in test [2]; 23.6 µM in test [3]; 26.6 µM in test [4]; 15.4 µM in test [5]; 3.68 µM in test [6]. The TGI came out at 21.5 µM in test [7], 24.1 µM in test [8], 19.8 µM in [9] and 17.7 µM in [10].
For `COc1ccc(/C=N/Nc2[nH]c(=S)nc3[nH]ncc23)cc1`, the TGI in [1], in test [2], in test [3], in test [4], in test [5] and in test [6] was greater than 100 µM in each case. Moreover, the TGI in [7], in test [8], in [9] and in test [10] was greater than 100 µM throughout.
Take `COc1ccc(C2CC(c3c(C)nn(-c4ccccc4)c3-c3ccc(C)cc3O)=NN2c2ccccc2)cc1` (configuration not stated): the TGI in test [1], in test [2], in test [3], in test [4], in test [5] and in test [6] was greater than 100 µM each time. Also, the TGI in test [7], in test [8], in test [9] and in [10] was greater than 100 µM in each case.
In the case of `CN(C)CCCn1c2ccccc2c2cnccc21`, the TGI in test [1] is greater than 100 µM; in [2] it was greater than 100 µM; in [3], greater than 100 µM; in [4] it was 47.9 µM; in [5], greater than 100 µM; in test [6], greater than 100 µM. For the same compound, the TGI in [7] was 42.5 µM; in test [8] it was 74.6 µM; in test [9] it was greater than 100 µM; in [10] it was greater than 100 µM.
Turning to `O=[N+]([O-])c1ccc2nc3ccc([N+](=O)[O-])cn3c2c1`, the TGI in [1], in test [2], in test [3], in [4], in test [5] and in test [6] was greater than 100 µM each time. In addition, the TGI in test [7], in [8], in [9] and in [10] was greater than 100 µM each time.
Turning to `O=C(Nc1cccc2nsnc12)c1cc2c(cc1Cl)Sc1nccn1S2(=O)=O`, the TGI in test [1] was 3.4 µM; in test [2], greater than 100 µM; in test [3] it was 18 µM; in test [4] it was 4.41 µM; in [5] it was 8.94 µM; in test [6], 36.5 µM. For the same compound, the TGI in test [7] was 38.5 µM; in test [8], 31.1 µM; in test [9], greater than 60.7 µM; in test [10], 25.6 µM.
As for `Cn1c(N)c(/C=N/NC(=O)CC#N)c(=O)n(C)c1=O`, the TGI in test [1], in [2], in test [3], in test [4], in test [5] and in test [6] was greater than 100 µM throughout. Besides, the TGI in [7], in test [8], in test [9] and in [10] was greater than 100 µM each time.
With `N#Cc1c(N)c(-c2ccc(Cl)cc2)c(F)c2ccccc12`, the TGI was greater than 100 µM in test [1]; greater than 100 µM in [2]; 58.3 µM in test [3]; greater than 100 µM in test [4]; greater than 100 µM in test [5]; greater than 100 µM in test [6]. The TGI in test [7], in test [8], in test [9] and in test [10] was greater than 100 µM in each case.
Regarding `CCOC(=O)C1C/C(C)=C(/C)SCCCS1` (configuration not stated), the TGI in test [1], in test [2], in [3], in test [4], in test [5] and in [6] was greater than 100 µM in each case. Besides, the TGI in [7], in [8], in [9] and in [10] was greater than 100 µM each time.
Consider `O=C(C[C@@H]1NCCC[C@H]1O)Cn1cnc2cc(Br)c(Cl)cc2c1=O`, for which the TGI in [1] was determined as 20.3 µM; in test [2] it was 1.36 µM; in test [3], 0.0814 µM; in [4], 0.422 µM; in test [5] it was 0.125 µM; in test [6] it was 0.076 µM. The TGI stood at 0.0473 µM in test [7], 0.0726 µM in test [8], 0.209 µM in test [9] and 0.403 µM in test [10].
For the compound `O=C1c2cc(Cl)ccc2-n2c(noc2=O)C2CSCN12` (configuration not stated), the TGI in test [1], in [2], in [3], in [4], in [5] and in [6] was greater than 100 µM throughout. In addition, the TGI in [7], in test [8], in test [9] and in test [10] was greater than 100 µM each time.
Regarding `CC1=NN(c2nc(N)nc(/C(C#N)=C/c3ccncc3)n2)C(C)(C)C1`, the TGI in [1], in test [2], in [3], in test [4], in test [5] and in [6] was greater than 100 µM each time. Further, the TGI in [7], in [9] and in [10] was greater than 100 µM each time.
In the case of `O=c1c(Cc2ccc(Cl)cc2)nnc2sc(-c3ccc([N+](=O)[O-])cc3)nn12`, the TGI in test [1] is 53 µM; in test [2] it was greater than 100 µM; in [3], 74.1 µM; in test [4], greater than 100 µM; in test [5] it was greater than 100 µM; in test [6], 58.5 µM. In addition, the TGI in [8] is greater than 100 µM; in [9] it was 80.8 µM; in [10] it was 29.3 µM.
As to `Cc1cs/c(=N\C(P(=O)(O)O)P(=O)(O)O)n1C`, the TGI is greater than 100 µM in test [1]; 47.8 µM in test [2]; greater than 100 µM in test [3]; greater than 100 µM in test [4]; greater than 100 µM in [5]; greater than 100 µM in test [6]. For the same compound, the TGI in test [7], in [9] and in [10] was greater than 100 µM each time.
